Laboratory results from patent publication US20220187282A1, “CARDIOMYOCYTE PROLIFERATION” (The Council of the Queensland Institute of Medical Research, priority 2019, published 2022).

Assays:
Type in all cases: biochemical
kinases [1] = target: kinases (Homo sapiens, UniProt Q9NRM7); conditions: LATS2 FRET-Lantha SP; Test Conc(μM) 1
kinases [2] = target: kinases (Homo sapiens, UniProt Q00534); conditions: CDK6 Cyclin D1 FRET-Adapta SP; Test Conc(μM):ATP Conc(μM) 1:10
kinases [3] = target: kinases (Homo sapiens, UniProt P22612); conditions: PRKACG FRET-Lantha SP; Test Conc(μM) 1
Sequence of kinases (Homo sapiens, UniProt P22612) (P22612 whole entry): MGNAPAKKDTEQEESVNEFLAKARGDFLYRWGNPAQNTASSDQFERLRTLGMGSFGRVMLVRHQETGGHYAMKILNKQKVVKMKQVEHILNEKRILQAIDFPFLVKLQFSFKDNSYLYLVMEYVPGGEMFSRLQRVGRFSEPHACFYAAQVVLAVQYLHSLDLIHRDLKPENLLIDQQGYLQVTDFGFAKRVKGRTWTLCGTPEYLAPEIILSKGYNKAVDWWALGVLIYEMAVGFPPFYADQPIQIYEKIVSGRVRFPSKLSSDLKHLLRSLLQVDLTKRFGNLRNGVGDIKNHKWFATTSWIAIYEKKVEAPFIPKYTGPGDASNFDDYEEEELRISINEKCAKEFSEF

kinases [4] = target: kinases (Homo sapiens, UniProt Q8TDX7); conditions: NEK7 FRET-Z-Lyte SP; Test Conc(μM):ATP Conc(μM) 1:50
kinases [5] = target: kinases (Homo sapiens, UniProt Q86Y07); conditions: VRK2 FRET-Lantha SP; Test Conc(μM) 1
kinases [6] = target: kinases (Homo sapiens, UniProt Q9HAZ1); conditions: CLK4 FRET-Lantha SP; Test Conc(μM) 1
kinases [7] = target: kinases (Homo sapiens, UniProt P28482); conditions: MAPK1 (ERK2) FRET-Z-Lyte SP; Test Conc(μM):ATP Conc(μM) 1:100
kinases [8] = target: kinases (Homo sapiens, UniProt Q9BUB5); conditions: MKNK1 (MNK1) *Mn* Z-Lyte SP; Test Conc(μM):ATP Conc(μM) 1:100
Sequence of kinases (Homo sapiens, UniProt Q9BUB5) (Q9BUB5 whole entry): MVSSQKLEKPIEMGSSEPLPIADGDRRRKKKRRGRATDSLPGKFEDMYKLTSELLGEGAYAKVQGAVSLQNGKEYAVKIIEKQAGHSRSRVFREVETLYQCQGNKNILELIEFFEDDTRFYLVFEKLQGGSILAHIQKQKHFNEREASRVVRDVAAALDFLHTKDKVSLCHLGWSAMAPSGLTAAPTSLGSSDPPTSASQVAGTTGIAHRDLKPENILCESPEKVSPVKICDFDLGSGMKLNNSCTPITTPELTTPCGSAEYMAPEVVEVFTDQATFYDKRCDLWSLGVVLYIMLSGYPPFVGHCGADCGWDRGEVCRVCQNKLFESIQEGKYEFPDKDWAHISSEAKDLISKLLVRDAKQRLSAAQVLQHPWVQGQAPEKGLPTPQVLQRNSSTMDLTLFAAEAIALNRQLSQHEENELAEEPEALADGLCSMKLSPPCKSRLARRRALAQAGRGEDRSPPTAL

kinases [9] = target: kinases (Homo sapiens, UniProt O76039); conditions: CDKL5 FRET-Z-Lyte SP; Test Conc(μM):ATP Conc(μM) 1:500
kinases [10] = target: kinases (Homo sapiens, UniProt P05129); conditions: PRKCG (PKC gamma) Z-Lyte SP; Test Conc(μM):ATP Conc(μM) 1:25
kinases [11] = target: kinases (Homo sapiens, UniProt Q05397); conditions: PTK2 (FAK) FRET-Z-Lyte SP; Test Conc(μM):ATP Conc(μM) 1:50
kinases [12] = target: kinases (Homo sapiens, UniProt Q9NQU5); conditions: PAK6 FRET-Z-Lyte SP; Test Conc(μM):ATP Conc(μM) 1:10
kinases [13] = target: kinases (Homo sapiens, UniProt P19525); conditions: EIF2AK2 (PKR) FRET-Lantha SP; Test Conc(μM) 1
kinases [14] = target: kinases (Homo sapiens, UniProt Q2M2I8); conditions: AAK1 FRET-Lantha SP; Test Conc(μM) 1
Sequence of kinases (Homo sapiens, UniProt Q2M2I8) (Q2M2I8 whole entry): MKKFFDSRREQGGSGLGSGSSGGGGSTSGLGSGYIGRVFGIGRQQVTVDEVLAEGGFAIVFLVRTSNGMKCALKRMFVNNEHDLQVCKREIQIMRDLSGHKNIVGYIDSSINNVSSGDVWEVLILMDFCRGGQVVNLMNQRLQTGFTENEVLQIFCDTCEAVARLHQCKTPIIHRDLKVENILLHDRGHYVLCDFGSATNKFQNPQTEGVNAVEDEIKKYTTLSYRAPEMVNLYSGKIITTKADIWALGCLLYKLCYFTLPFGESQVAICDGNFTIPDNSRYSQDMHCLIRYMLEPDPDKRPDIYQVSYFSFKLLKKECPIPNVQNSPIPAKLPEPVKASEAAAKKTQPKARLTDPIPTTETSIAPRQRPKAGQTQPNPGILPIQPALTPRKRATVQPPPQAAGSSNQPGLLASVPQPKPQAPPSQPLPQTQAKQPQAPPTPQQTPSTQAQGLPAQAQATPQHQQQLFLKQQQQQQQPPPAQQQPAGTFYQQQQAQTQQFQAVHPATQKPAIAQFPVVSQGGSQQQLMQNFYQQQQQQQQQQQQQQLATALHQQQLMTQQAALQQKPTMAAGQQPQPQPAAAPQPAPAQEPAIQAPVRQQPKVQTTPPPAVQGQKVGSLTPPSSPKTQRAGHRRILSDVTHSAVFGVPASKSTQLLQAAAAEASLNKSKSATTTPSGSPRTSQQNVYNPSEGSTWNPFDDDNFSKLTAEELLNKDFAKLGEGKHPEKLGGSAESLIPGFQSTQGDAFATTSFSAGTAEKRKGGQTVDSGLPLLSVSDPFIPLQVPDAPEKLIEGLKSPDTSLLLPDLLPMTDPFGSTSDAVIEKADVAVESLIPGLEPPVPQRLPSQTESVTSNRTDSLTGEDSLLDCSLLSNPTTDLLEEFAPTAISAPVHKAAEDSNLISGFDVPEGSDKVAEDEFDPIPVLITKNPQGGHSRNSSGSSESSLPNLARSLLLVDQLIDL

kinases [15] = target: kinases (Homo sapiens, UniProt O15264); conditions: MAPK13 (p38 delta) Z-Lyte SP; Test Conc(μM):ATP Conc(μM) 1:10
Sequence of kinases (Homo sapiens, UniProt O15264) (O15264 whole entry): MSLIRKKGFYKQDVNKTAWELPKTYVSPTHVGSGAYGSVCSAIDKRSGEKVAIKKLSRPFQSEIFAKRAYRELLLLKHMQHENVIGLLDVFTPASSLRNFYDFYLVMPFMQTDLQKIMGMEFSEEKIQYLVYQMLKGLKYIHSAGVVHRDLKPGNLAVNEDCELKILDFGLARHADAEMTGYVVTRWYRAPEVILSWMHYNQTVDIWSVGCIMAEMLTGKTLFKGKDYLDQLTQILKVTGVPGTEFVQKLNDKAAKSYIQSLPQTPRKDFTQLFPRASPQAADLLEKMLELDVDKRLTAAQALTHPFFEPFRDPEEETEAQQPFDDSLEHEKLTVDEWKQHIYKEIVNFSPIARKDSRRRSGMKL

kinases [16] = target: kinases (Homo sapiens, UniProt P51813); conditions: BMX FRET-Z-Lyte SP; Test Conc(μM):ATP Conc(μM) 1:100
kinases [17] = target: kinases (Homo sapiens, UniProt Q13470); conditions: TNK1 FRET-Z-Lyte SP; Test Conc(μM):ATP Conc(μM) 1:200
kinases [18] = target: kinases (Homo sapiens, UniProt O96017); conditions: CHEK2 (CHK2) FRET-Z-Lyte SP; Test Conc(μM):ATP Conc(μM) 1:75
Sequence of kinases (Homo sapiens, UniProt O96017) (O96017 whole entry): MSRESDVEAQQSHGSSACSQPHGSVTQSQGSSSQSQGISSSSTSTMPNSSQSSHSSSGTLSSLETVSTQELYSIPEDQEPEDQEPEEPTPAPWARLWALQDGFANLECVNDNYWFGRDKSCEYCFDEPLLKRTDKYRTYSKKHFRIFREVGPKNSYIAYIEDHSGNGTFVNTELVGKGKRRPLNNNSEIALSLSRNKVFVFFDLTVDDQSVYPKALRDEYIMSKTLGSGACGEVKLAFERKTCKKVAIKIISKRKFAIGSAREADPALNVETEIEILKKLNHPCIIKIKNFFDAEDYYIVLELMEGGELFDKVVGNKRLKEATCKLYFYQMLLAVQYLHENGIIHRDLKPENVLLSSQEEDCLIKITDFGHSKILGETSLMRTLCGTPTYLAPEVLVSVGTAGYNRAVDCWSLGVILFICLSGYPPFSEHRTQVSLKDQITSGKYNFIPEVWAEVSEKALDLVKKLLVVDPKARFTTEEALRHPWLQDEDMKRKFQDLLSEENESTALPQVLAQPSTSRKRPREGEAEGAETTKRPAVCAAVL

kinases [19] = target: kinases (Homo sapiens, UniProt Q9P0L2); conditions: MARK1 (MARK) FRET-Z-Lyte SP; Test Conc(μM):ATP Conc(μM) 1:5
kinases [20] = target: kinases (Homo sapiens, UniProt Q16512); conditions: PKN1 (PRK1) FRET-Z-Lyte SP; Test Conc(μM):ATP Conc(μM) 1:50
kinases [21] = target: kinases (Homo sapiens, UniProt Q9UIK4); conditions: DAPK2 FRET-Lantha SP; Test Conc(μM) 1
Sequence of kinases (Homo sapiens, UniProt Q9UIK4) (Q9UIK4 whole entry): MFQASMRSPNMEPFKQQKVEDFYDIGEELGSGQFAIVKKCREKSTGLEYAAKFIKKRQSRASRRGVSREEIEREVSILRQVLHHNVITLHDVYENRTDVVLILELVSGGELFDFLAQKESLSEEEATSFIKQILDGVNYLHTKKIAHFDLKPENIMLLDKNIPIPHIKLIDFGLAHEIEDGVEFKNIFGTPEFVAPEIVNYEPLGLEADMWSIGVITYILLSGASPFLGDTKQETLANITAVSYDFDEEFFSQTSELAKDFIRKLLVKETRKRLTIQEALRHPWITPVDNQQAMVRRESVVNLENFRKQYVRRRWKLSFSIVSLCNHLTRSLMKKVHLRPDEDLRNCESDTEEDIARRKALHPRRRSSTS

kinases [22] = target: kinases (Homo sapiens, UniProt P22607); conditions: FGFR3 *Mn* FRET-Z-Lyte SP; Test Conc(μM):ATP Conc(μM) 1:75
Sequence of kinases (Homo sapiens, UniProt P22607) (P22607 23-806): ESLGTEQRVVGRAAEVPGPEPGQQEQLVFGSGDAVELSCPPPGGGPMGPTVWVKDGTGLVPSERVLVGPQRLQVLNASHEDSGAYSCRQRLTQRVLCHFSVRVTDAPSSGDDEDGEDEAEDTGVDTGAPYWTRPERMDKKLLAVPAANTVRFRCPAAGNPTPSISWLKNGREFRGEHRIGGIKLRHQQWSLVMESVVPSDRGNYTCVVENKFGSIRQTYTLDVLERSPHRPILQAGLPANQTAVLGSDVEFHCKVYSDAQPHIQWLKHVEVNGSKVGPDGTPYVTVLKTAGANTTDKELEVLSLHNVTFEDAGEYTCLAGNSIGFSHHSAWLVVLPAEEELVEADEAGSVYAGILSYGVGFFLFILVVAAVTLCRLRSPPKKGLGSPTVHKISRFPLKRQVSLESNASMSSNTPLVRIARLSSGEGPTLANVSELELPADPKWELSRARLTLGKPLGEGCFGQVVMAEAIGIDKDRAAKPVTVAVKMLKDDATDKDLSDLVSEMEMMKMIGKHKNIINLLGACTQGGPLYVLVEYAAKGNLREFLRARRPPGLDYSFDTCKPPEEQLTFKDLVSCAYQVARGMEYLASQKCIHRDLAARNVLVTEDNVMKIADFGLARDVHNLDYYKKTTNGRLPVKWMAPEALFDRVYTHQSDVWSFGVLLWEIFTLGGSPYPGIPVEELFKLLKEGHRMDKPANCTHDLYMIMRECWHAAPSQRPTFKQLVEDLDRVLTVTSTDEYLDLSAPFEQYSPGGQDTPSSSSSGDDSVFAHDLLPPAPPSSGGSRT

kinases [23] = target: kinases (Homo sapiens, UniProt P16591); conditions: FER FRET-Z-Lyte SP; Test Conc(μM):ATP Conc(μM) 1:25
kinases [24] = target: kinases (Homo sapiens, UniProt O14965); conditions: AURKA (Aurora A) Z-Lyte SP; Test Conc(μM):ATP Conc(μM) 1:10
kinases [25] = target: kinases (Homo sapiens, UniProt Q16644); conditions: MAPKAPK3 FRET-Z-Lyte SP; Test Conc(μM):ATP Conc(μM) 1:200
Sequence of kinases (Homo sapiens, UniProt Q16644) (Q16644 whole entry): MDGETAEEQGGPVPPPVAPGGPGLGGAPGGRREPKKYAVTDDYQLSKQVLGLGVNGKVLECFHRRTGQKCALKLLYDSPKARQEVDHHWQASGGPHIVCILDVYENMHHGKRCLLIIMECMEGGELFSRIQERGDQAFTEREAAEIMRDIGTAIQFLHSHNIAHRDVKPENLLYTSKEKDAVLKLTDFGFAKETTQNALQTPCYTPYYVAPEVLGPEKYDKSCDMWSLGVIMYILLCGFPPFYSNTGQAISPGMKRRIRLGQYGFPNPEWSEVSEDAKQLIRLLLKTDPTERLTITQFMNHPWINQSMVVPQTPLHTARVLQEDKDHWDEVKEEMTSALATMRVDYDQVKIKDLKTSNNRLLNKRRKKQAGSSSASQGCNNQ

kinases [26] = target: kinases (Homo sapiens, UniProt Q9NY57); conditions: STK32B (YANK2) FRET-Lantha SP; Test Conc(μM) 1
Sequence of kinases (Homo sapiens, UniProt Q9NY57) (Q9NY57 whole entry): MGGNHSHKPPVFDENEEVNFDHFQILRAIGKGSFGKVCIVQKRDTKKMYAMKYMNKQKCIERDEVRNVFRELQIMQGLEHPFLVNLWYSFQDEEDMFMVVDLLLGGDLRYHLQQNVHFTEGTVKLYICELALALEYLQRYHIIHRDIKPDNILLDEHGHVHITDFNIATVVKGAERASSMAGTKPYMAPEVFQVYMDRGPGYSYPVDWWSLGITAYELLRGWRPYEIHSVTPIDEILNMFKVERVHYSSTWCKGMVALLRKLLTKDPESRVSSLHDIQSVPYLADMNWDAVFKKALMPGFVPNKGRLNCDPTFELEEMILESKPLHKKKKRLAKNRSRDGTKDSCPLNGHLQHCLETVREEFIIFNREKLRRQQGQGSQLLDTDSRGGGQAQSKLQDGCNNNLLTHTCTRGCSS

kinases [27] = target: kinases (Homo sapiens, UniProt Q52WX2); conditions: SBK1 FRET-Z-Lyte SP; Test Conc(μM):ATP Conc(μM) 1:5
kinases [28] = target: kinases (Homo sapiens, UniProt O75914); conditions: PAK3 FRET-Z-Lyte SP; Test Conc(μM):ATP Conc(μM) 1:100

Sequence of kinases (Homo sapiens, UniProt Q00534) (Q00534 whole entry): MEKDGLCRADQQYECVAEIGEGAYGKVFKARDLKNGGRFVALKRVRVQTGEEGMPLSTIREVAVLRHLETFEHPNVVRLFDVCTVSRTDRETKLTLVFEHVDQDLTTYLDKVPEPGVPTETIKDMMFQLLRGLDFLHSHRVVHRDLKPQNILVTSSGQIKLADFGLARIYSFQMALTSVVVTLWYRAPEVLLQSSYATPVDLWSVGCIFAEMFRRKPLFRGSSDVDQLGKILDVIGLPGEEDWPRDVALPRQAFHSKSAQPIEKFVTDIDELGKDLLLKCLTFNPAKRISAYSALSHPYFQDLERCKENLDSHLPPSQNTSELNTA

Cc1ccc(NC(=O)c2ccnc(N3CCOCC3)c2)cc1Nc1ccnc(N2CC(C)OC(C)C2)n1 (centres unmarked) [compound 3]
Mean Inhib (%) (kinases [1]): 0.5%
Mean Inhib (%) (kinases [2]): −1.8%
Mean Inhib (%) (kinases [3]): 0.7%
Mean Inhib (%) (kinases [4]): 7.4%
Mean Inhib (%) (kinases [5]): −5.7%
Mean Inhib (%) (kinases [6]): 6.4%
Mean Inhib (%) (kinases [7]): 3.6%
Mean Inhib (%) (kinases [8]): 5.3%
Mean Inhib (%) (kinases [9]): 13.9%
Mean Inhib (%) (kinases [10]): 20.4%
Mean Inhib (%) (kinases [11]): 13.1%
Mean Inhib (%) (kinases [12]): 15.9%
Mean Inhib (%) (kinases [13]): 2.8%
Mean Inhib (%) (kinases [14]): 5.8%
Mean Inhib (%) (kinases [15]): 4.7%
Mean Inhib (%) (kinases [16]): 7.2%
Mean Inhib (%) (kinases [17]): −8.8%
Mean Inhib (%) (kinases [18]): 10.2%
Mean Inhib (%) (kinases [19]): 16.9%
Mean Inhib (%) (kinases [20]): −5.8%
Mean Inhib (%) (kinases [21]): −2.5%
Mean Inhib (%) (kinases [22]): −2.6%
Mean Inhib (%) (kinases [23]): 4.8%
Mean Inhib (%) (kinases [24]): −2.7%
Mean Inhib (%) (kinases [25]): 1.7%
Mean Inhib (%) (kinases [26]): −1.3%
Mean Inhib (%) (kinases [27]): 3.3%
Mean Inhib (%) (kinases [28]): −0.3%

Cc1cc(Oc2ccnc(Nc3ccc(S(N)(=O)=O)cc3)c2)c(-c2ccccn2)nc1C [compound 65]
Mean Inhib (%) (kinases [1]): 4.9%
Mean Inhib (%) (kinases [2]): 6.7%
Mean Inhib (%) (kinases [3]): 2.2%
Mean Inhib (%) (kinases [4]): 6.9%
Mean Inhib (%) (kinases [5]): −16.6%
Mean Inhib (%) (kinases [6]): 0.4%
Mean Inhib (%) (kinases [7]): 7.5%
Mean Inhib (%) (kinases [8]): 1.5%
Mean Inhib (%) (kinases [9]): 9.8%
Mean Inhib (%) (kinases [10]): −13.8%
Mean Inhib (%) (kinases [11]): 5.7%
Mean Inhib (%) (kinases [12]): 16.2%
Mean Inhib (%) (kinases [13]): 3.6%
Mean Inhib (%) (kinases [14]): 2.4%
Mean Inhib (%) (kinases [15]): 3.7%
Mean Inhib (%) (kinases [16]): 18.7%
Mean Inhib (%) (kinases [17]): −4.5%
Mean Inhib (%) (kinases [18]): 0.4%
Mean Inhib (%) (kinases [19]): 5.7%
Mean Inhib (%) (kinases [20]): 0.4%
Mean Inhib (%) (kinases [21]): −0.8%
Mean Inhib (%) (kinases [22]): 7.7%
Mean Inhib (%) (kinases [23]): 5.0%
Mean Inhib (%) (kinases [24]): 7.2%
Mean Inhib (%) (kinases [25]): −1.3%
Mean Inhib (%) (kinases [26]): 2.1%
Mean Inhib (%) (kinases [27]): −6.2%
Mean Inhib (%) (kinases [28]): 23.3%
